In BindingDB's records for patent US20240116926 (Astrazeneca, 2024):

Target: T1, Transcriptional enhancer factor TEF-3 [217-434] (Homo sapiens, UniProt Q15561)
T1 construct: 217-434
Experiment: TEAD4 FRET Assay

T1 sequence (Q15561 217-434): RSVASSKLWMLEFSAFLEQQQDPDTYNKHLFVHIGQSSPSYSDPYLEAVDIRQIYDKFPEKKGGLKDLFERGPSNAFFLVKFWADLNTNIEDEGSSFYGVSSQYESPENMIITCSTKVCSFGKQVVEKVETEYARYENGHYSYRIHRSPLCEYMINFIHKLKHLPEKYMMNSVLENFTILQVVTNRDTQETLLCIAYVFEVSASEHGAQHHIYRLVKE

IC50: 130 nM
SMILES: C=CC(=O)N1C[C@H](C#N)[C@H](Nc2nnc(-c3ccc(C(F)(F)F)cc3)c3ccccc23)C1 (single isomer, unassigned) [US20240116926, Example 29]
